Experimental data reported in US20020183384A1, “Methods of treating nuclear factor-kappa B mediated diseases and disorders” (priority 2001, published 2002).

Each compound was assayed on NF-κB mediated transcription (assay: NF-κB driven β-lactamase reporter assay in ECV-304 NF-κB.βlaZ cells (AURORA CCF2 fluorescence)). Conditions: 10 μM compound; ECV-304 NF-κB.βlaZ cells stimulated with 10 ng/mL TNF-α or 100 pg/mL IL-1β, 6 hours at 37° C.; inhibition of maximum blue/green ratio.
Assay type: cell-based, human
In short: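 ECV-304 cells (clone 1E8) stably carrying a β-lactamase reporter driven by 5 HIV-1 NF-κB sites, plated in M-199 with 2% FBS, compound at 10 μM final. CCF2 read at 395 nm excitation, blue 460 nm/green 530 nm emission ratio; IC50 from dose-response curve.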
`CCCCCCC(C)OS(=O)(=O)NC(=O)Nc1c(C(C)C)cccc1C(C)C` (stereo not shown) [Example 94, Sulfamic acid, [[[2,6-bis(1-methylethyl)phenyl]amino]carbonyl]-, 1-methylheptyl ester,] was tested, and the “Percent Inhibition at 10 μM” value was less than 10%. With `CC1(C)OCC(NC(=O)NS(=O)(=O)NCC23CC4CC(CC(C4)C2)C3)C(c2ccccc2)O1` (stereo not drawn) [Example 104, Urea, N-(2,2-dimethyl-4-phenyl-1,3-dioxan-5-yl)-N′-[[(tricyclo[3.3.1.1^3,7]dec-1-ylmethyl)amino]sulfonyl]-, (4S-#cis/)-] the “Percent Inhibition at 10 μM” value was less than 10%. In the case of `CC(C)c1cccc(C(C)C)c1OS(=O)(=O)NC(=O)OCCOC(=O)NS(=O)(=O)Oc1c(C(C)C)cccc1C(C)C` [Example 111, Carbamic acid, [[2,6-bis(1-methylethyl)phenoxy]sulfonyl]-, 1,2-ethanediyl ester], the “Percent Inhibition at 10 μM” value is reported as less than 10%. In the case of `CC(C)c1cccc(C(C)C)c1OS(=O)(=O)NC(=O)OCC(COC(=O)NS(=O)(=O)Oc1c(C(C)C)cccc1C(C)C)OC(=O)NS(=O)(=O)Oc1c(C(C)C)cccc1C(C)C` [Example 112, Carbamic acid, [[2,6-bis(1-methylethyl)phenoxy]sulfonyl]-, 1,2,3-propanetriyl ester], the “Percent Inhibition at 10 μM” value is reported as less than 10%.

Same assay, conditions: Homo sapiens, ECV-304, 6 h, 10 μM compound; ECV-304 NF-κB.βlaZ cells stimulated with 10 ng/mL TNF-α or 100 pg/mL IL-1β, 6 hours at 37° C.; inhibition of maximum blue/green ratio; read-out: Percent Inhibition at 10 μM
With `CCCCCCCCCCCCCCN(C)S(=O)(=O)NC(=O)Nc1c(C(C)C)cccc1C(C)C` [Example 84, Urea, N-[2,6-bis(1-methylethyl)phenyl]-N′-[(methyltetradecylamino)-sulfonyl]-] the inhibition at 10 µM was 44.8%. Compound `CCCCCCCCCCOS(=O)(=O)NC(=O)Nc1c(C(C)C)cccc1C(C)C` [Example 90, Sulfamic acid, [[[2,6-bis(1-methylethyl)phenyl]amino]carbonyl]-, decyl ester] has an inhibition at 10 µM of 13.6%. For `CCCCCCCCCCCCOS(=O)(=O)NC(=O)Sc1c(C(C)C)cccc1C(C)C` [Example 93, Carbamothioic acid, [(dodecyloxy)sulfonyl]-, S-[2,6-bis(1-methylethyl)-phenyl] ester], the inhibition at 10 µM was 14.5%. With `CC(C)c1cccc(C(C)C)c1NC(=O)NS(=O)(=O)Oc1c(C(C)C)cccc1C(C)C` [Example 95, Sulfamic acid, [[[2,6-bis(1-methylethyl)phenyl]amino]carbonyl]-, 2,6-bis(1-methylethyl)phenyl ester] the inhibition at 10 µM was 33.1%. For `CCCCN(CCCC)S(=O)(=O)N(C)C(=O)Nc1c(C(C)C)cccc1C(C)C` [Example 99, Urea, N′-[2,6-bis(1-methylethyl)phenyl]-N-[(dibutylamino)sulfonyl]-N-methyl-], the inhibition at 10 µM was less than 10%. Compound `CCCCCCCCCC(=O)NS(=O)(=O)Oc1c(C(C)C)cccc1C(C)C` [Example 106, Sulfamic acid, (1-oxodecyl)-, 2,6-bis(1-methylethyl)phenyl ester] has an inhibition at 10 µM of 72.3%. Work on `CCCCCCC(C)OC(=O)NS(=O)(=O)Oc1c(C(C)C)cccc1C(C)C` (stereo not shown) [Example 109, Carbamic acid, [[2,6-bis(1-methylethyl)phenoxy]sulfonyl]-, 1-methylheptyl ester] yielded an inhibition at 10 µM of 51.4%. `CC[C@H](C=C[C@@H](C)[C@H]1CC[C@H]2[C@@H]3CC=C4C[C@H](OC(=O)NS(=O)(=O)Oc5c(C(C)C)cccc5C(C)C)CC[C@]4(C)[C@H]3CC[C@]12C)C(C)C` [Example 118, Stigmasta-5,22-dien-3-ol, [[2,6-bis(1-methylethyl)phenoxy]sulfonyl]-carbamate, (3α)-] was tested, and the inhibition at 10 µM was less than 10%. Compound `CC(C)c1cc(C(C)C)c(CC(=O)NS(=O)(=O)Oc2c(C(C)C)cccc2C(C)C)c(C(C)C)c1` [Example 120, Sulfamic acid, [[2,4,6-tris(1-methylethyl)phenyl]acetyl]-, 2,6-bis(1-methylethyl)phenyl ester] has an inhibition at 10 µM of 55%.

Same assay, conditions: Homo sapiens; 10 μM compound; ECV-304 NF-κB.βlaZ cells stimulated with 10 ng/mL TNF-α or 100 pg/mL IL-1β, 6 hours at 37° C.; inhibition of maximum blue/green ratio; read-out: Percent Inhibition at 10 μM
`CCCCCCCCN(CCCCCCCC)S(=O)(=O)NC(=O)Oc1c(C(C)C)cccc1C(C)C` [Example 85, Carbamic acid, [(dioctylamino)sulfonyl]-, 2,6-bis(1-methylethyl)phenyl ester] was tested, and the inhibition at 10 µM was 45%. Compound `CC(C)c1cccc(C(C)C)c1OC(=O)NS(=O)(=O)N(C(C)C)C1CCCCC1` [Example 86, Carbamic acid, [[cyclohexyl(1-methylethyl)amino]sulfonyl]-, 2,6-bis(1-methylethyl)phenyl ester] has an inhibition at 10 µM of 16%. Compound `CCCCCCCCN(C)S(=O)(=O)NC(=O)Oc1c(C(C)C)cccc1C(C)C` [Example 87, Carbamic acid, [(methyloctylamino)sulfonyl]-, 2,6-bis(1-methylethyl)-phenyl ester] has an inhibition at 10 µM of less than 10%. `CCCCCCN(CCCCCC)S(=O)(=O)NC(=O)Oc1c(C(C)C)cccc1C(C)C` [Example 88, Carbamic acid, [(dihexylamino)sulfonyl]-, 2,6-bis(1-methylethyl)phenyl ester] was tested, and the inhibition at 10 µM was less than 10%. In the case of `CCCCCN(CCCCC)S(=O)(=O)NC(=O)Oc1c(C(C)C)cccc1C(C)C` [Example 89, Carbamic acid, [(dipentylamino)sulfonyl]-, 2,6-bis(1-methylethyl)phenyl ester], the inhibition at 10 µM is reported as 31.9%. In the case of `CC(C)c1cccc(C(C)C)c1OS(=O)(=O)NC(=O)Oc1c(C(C)(C)C)cccc1C(C)(C)C` [Example 91, Carbamic acid, [[2,6-bis(1-methylethyl)phenoxy]sulfonyl]-, 2,6-bis(1,1-dimethylethyl)phenyl ester], the inhibition at 10 µM is reported as 39.7%. For `CCCCCCCCCCCCOS(=O)(=O)NC(=O)Oc1c(-c2ccccc2)cccc1-c1ccccc1` [Example 92, Carbamic acid, [(dodecyloxy)sulfonyl]-, [1,1′:3′,1″-terphenyl]-2′-yl ester], the inhibition at 10 µM was less than 10%. In the case of `CC(C)c1cccc(C(C)C)c1OC(=O)NS(=O)(=O)Oc1ccccc1` [Example 97, Carbamic acid, (phenoxysulfonyl)-, 2,6-bis(1-methylethyl)phenyl ester], the inhibition at 10 µM is reported as less than 10%. `Cc1cccc(C)c1OS(=O)(=O)NC(=O)Oc1c(C(C)C)cccc1C(C)C` [Example 98, Carbamic acid, [(2,6-dimethylphenoxy)sulfonyl]-, 2,6-bis(1-methylethyl)-phenyl ester] was tested, and the inhibition at 10 µM was less than 10%. `CC(C)(C)c1cccc(C(C)(C)C)c1OC(=O)NS(=O)(=O)Oc1c(C(C)(C)C)cccc1C(C)(C)C` [Example 100, Carbamic acid, [[2,6-bis(1,1-dimethylethyl)phenoxy]sulfonyl]-, 2,6-bis(1,1-dimethylethyl)phenyl ester] was tested, and the inhibition at 10 µM was 50%. Work on `CC(C)c1cccc(C(C)C)c1OC(=O)NS(=O)(=O)Oc1c(C(C)(C)C)cccc1C(C)(C)C` [Example 102, Carbamic acid, [[2,6-bis(1,1-dimethylethyl)phenoxy]sulfonyl]-, 2,6-bis(1-methylethyl)phenyl ester] yielded an inhibition at 10 µM of 20.6%. `CC(C)c1cccc(C(C)C)c1OC(=O)NS(=O)(=O)Oc1c(F)cccc1F` [Example 103, Carbamic acid, [(2,6-difluorophenoxy)sulfonyl]-, 2,6-bis(1-methylethyl)-phenyl ester] was tested, and the inhibition at 10 µM was less than 10%. `CCCCCCCCCCCCCCCCOS(=O)(=O)NC(=O)Oc1c(C(C)C)cccc1C(C)C` [Example 107, Carbamic acid, [(hexadecyloxy)sulfonyl]-, 2,6-bis(1-methylethyl)phenyl ester] was tested, and the inhibition at 10 µM was less than 10%. `COc1cccc(OC)c1OC(=O)NS(=O)(=O)Oc1c(C(C)C)cccc1C(C)C` [Example 108, Carbamic acid, [[2,6-bis(1-methylethyl)phenoxy]sulfonyl]-, 2,6-dimethoxyphenyl ester] was tested, and the inhibition at 10 µM was less than 10%. For `CC(C)c1cc([N+](=O)[O-])cc(C(C)C)c1OC(=O)NS(=O)(=O)Oc1c(C(C)C)cccc1C(C)C` [Example 110, Carbamic acid, [[2,6-bis(1-methylethyl)phenoxy]sulfonyl]-, 2,6-bis(1-methylethyl)-4-nitrophenyl ester], the inhibition at 10 µM was 15.5%. In the case of `CC(C)c1cc(Br)cc(C(C)C)c1OC(=O)NS(=O)(=O)Oc1c(C(C)C)cccc1C(C)C` [Example 113, Carbamic acid, [[2,6-bis(1-methylethyl)phenoxy]sulfonyl]-, 4-bromo-2,6-bis(1-methylethyl)phenyl ester], the inhibition at 10 µM is reported as less than 10%. `CC(C)c1cccc(C(C)C)c1OS(=O)(=O)NC(=O)Oc1c(-c2ccccc2)cccc1-c1ccccc1` [Example 114, Carbamic acid, [[2,6-bis(1-methylethyl)phenoxy]sulfonyl]-, [1,1′:3′,1″-terphenyl]-2′-yl ester] gave an inhibition at 10 µM of less than 10%. Compound `COc1cc(C(C)(C)C)c(OC(=O)NS(=O)(=O)Oc2c(C(C)C)cccc2C(C)C)c(C(C)(C)C)c1` [Example 115, Carbamic acid, [[2,6-bis(1-methylethyl)phenoxy]sulfonyl]-, 2,6-bis(1,1-dimethylethyl)-4-methoxyphenyl ester] has an inhibition at 10 µM of 39%. In the case of `CC(C)c1cccc(C(C)C)c1OS(=O)(=O)NC(=O)Oc1c(C(C)C)c(C(C)C)c(F)c(C(C)C)c1C(C)C` [Example 116, Carbamic acid, [[2,6-bis(1-methylethyl)phenoxy]sulfonyl]-, 4-fluoro-2,3,5,6-tetrakis(1-methylethyl)phenyl ester], the inhibition at 10 µM is reported as less than 10%. `CC(C)c1cc(Cl)cc(C(C)C)c1OC(=O)NS(=O)(=O)Oc1c(C(C)C)cccc1C(C)C` [Example 117, Carbamic acid, [[2,6-bis(1-methylethyl)phenoxy]sulfonyl]-, 4-chloro-2,6-bis(1-methylethyl)phenyl ester] gave an inhibition at 10 µM of less than 10%. Compound `Cc1cc(C(C)(C)C)c(OC(=O)NS(=O)(=O)Oc2c(C(C)C)cccc2C(C)C)c(C(C)(C)C)c1` [Example 119, Carbamic acid, [[2,6-bis(1-methylethyl)phenoxy]sulfonyl]-, 2,6-bis(1,1-dimethylethyl)-4-methylphenyl ester] has an inhibition at 10 µM of 56.6%.
